# Data from EP2576536B1, “HAEMATOPOIETIC-PROSTAGLANDIN D2 SYNTHASE INHIBITORS” (priority 2010, dated 2011).
# Experiments:
# MEG-01S = MEG-01S cell viability by MTT assay; assay type: cell-based, human; conditions: 24 h treatment, 0-100 µM (Figure 3B)
# Protocol: (§1) All bone marrow-derived macrophages (BMM) were obtained by culturing bone marrow cells from the femurs of 6 to 8 week old C57BL/6 male mice in RPMI 1640 medium (Invitrogen Life Technologies, Carlsbad, CA, USA) supplemented with 10 % Fetal calf serum (Invitrogen) 20 U/ml penicillin and 20 µg/ml streptomycin (Invitrogen), 2 mM L-glutamine (Glutamax-1, Invitrogen) in the presence of 10^4 U/ml (100 ng/mL) recombinant human CSF-1 (a gift from Chiron, Emeryville, CA) on bacteriological plastic plates for 7 days. The human megakaryocytic cell line MEG-01S was obtained from the American Type Culture Collection. MEG-01S were maintained in the same media as for BMM, supplemented with 1 mM Sodium Pyruvate (Invitrogen).
# Known inhibitors 1 and 2, along with compound 3, were used to treat BMM at three doses (10, 30, 100 µM) in the presence of LPS for 24 h and cell viability was measured by MTT assay. BMM were seeded at 1 x 10^5 cells/well in 96 well plates and treated for 24 h with LPS (10 ng/ml) and compounds at 10, 30 and 100 µM. […] Cell viability was measured by MTT (Sigma-Aldrich) assay as described previously (Irvine, FASEB J, 2006).
# The effect of the compounds on MEG-01S cell viability was measured by MTT assay after 24 h treatment across the concentration range 0 - 100 µM of compounds (Figure 3B). […]
# [1] = tested on: mouse primary bone marrow-derived macrophages (BMM); assay: LPS-inducible PGE2, 6-keto PGF1α and TXB2 production from BMM (EIA), specificity; assay type: cell-based; conditions: 24 h, 0-100 µM
# Protocol: The human megakaryocytic cell line MEG-01S was obtained from the American Type Culture Collection. MEG-01S were maintained in the same media as for BMM, supplemented with 1 mM Sodium Pyruvate (Invitrogen).
# BMM were seeded overnight at 2 x 10^5 cells/ml in 24 well plates before treatment with compound at either 10 µM or 0.1 - 100 µM for 24 h in the presence or absence of lipopolysaccharide (LPS) from Salmonella Minnesota (Sigma-Aldrich) at a final concentration of 10 ng/ml. MEG-01S were seeded at 2 x 10^5 cells/ml and stimulated with PMA (Phorbol 12-myristate 13-acetate) (Sigma-Aldrich) at a final concentration of 0.1 µM for 16 h.
# [2] = tested on: MEG-01S human megakaryocytes; assay: A23187-inducible PGD2 production in PMA-differentiated MEG-01S (EIA); assay type: cell-based; conditions: at 100 µM (Figure 3A)
# Protocol: as §1
# BMM were seeded overnight at 2 x 10^5 cells/ml in 24 well plates before treatment with compound at either 10 µM or 0.1 - 100 µM for 24 h in the presence or absence of lipopolysaccharide (LPS) from Salmonella Minnesota (Sigma-Aldrich) at a final concentration of 10 ng/ml. […] Supernatants were collected and samples were analysed for PGD2 using Prostaglandin D2 Mox Express EIA kits, PGE2 using Prostaglandin E2 Express EIA kits, the prostacyclin derivative 6-keto PGF1α using the 6-keto Prostaglandin F1α EIA Kit and the Thromboxane A2 derivative TXB2 using the Thromboxane B2 Express EIA kit (Cayman Chemical) according to the manufacturer's instructions. […]
# BMM = BMM cell viability by MTT assay; assay type: cell-based, mouse; conditions: 10, 30, 100 µM, LPS, 24 h (Figure 1B)
# Protocol: as §1
# Known inhibitors 1 and 2, along with compound 3, were used to treat BMM at three doses (10, 30, 100 µM) in the presence of LPS for 24 h and cell viability was measured by MTT assay. BMM were seeded at 1 x 10^5 cells/well in 96 well plates and treated for 24 h with LPS (10 ng/ml) and compounds at 10, 30 and 100 µM. MEG-01S were PMA differentiated overnight before compounds were added for a further 24 h at 10, 30 and 100 µM. Cell viability was measured by MTT (Sigma-Aldrich) assay as described previously (Irvine, FASEB J, 2006).
# H-PGDS = biological target: T1, H-PGDS (Homo sapiens, UniProt O60760); assay: H-PGDS catalyzed conjugation of GSH and CDNB, enzyme inhibition assay; assay type: biochemical; conditions: for inhibition at 50 µM / I[50]: percent inhibition at 50 µM, Mean ± Standard Error of triplicate experiments; for inhibition at 50 µM: read-out: I[50]; for IC50: IC50 ± Standard Error of the Mean, triplicate experiments
# T1 construct: made in house; host or cells: Escherichia coli BL21 DE3
# Protocol: H-PGDS was expressed and purified as described previously (Jowsey, 2001). Briefly, H-PGDS was expressed in Escherichia coli strain BL21 DE3 transformed with the pET17b HPGDS expression construct, grown overnight at 37 °C in 250 ml of Luria-Bertani medium supplemented with 100 µg/ml ampicillin. After 24 h, without induction, bacteria were harvested by centrifugation at 5000 g for 20 min at 4 °C; cell pellets were kept at -70 °C until required. Cells were resuspended in 25 ml of ice-cold phosphate buffered saline (PBS), pH 7.4, containing 1 mM DTT, 0.5 % Triton X-100 and EDTA-free protease inhibitor tablets (F.Hoffmann-La Roche, Dee Why, NSW, Australia), and incubated with rotation for 30 mins at 4 °C. Cells were then lysed by sonication at 90-100 W over 3 x 1 min intervals, while incubated on ice; the lysate clarified by centrifugation at 18000 g for 10 min at 4 °C.
# The supernatant was then applied to a GSTPrep FF 16/10 column pre-equilibrated with PBS, pH 7.4, and 1 mM DTT, at 0.4 ml/minute using an AKTA explorer 100 (GE Healthcare, Rydalmere, NSW, Australia), then washed with 5 column volumes of the same buffer at 1 ml/min. Bound H-PGDS was eluted in 5 column volumes of 15 mM reduced glutathione in 50 mM Tris, pH 9.0, at 0.5 ml/min, and dialysed against 100 volumes of 5 mM TrisCl, pH 8.0. The protein was concentrated to 20 mg/ml, as determined by the method of Bradford (Bradford, 1976) using an Amicon Ultra-4 centrifugal filter device (Millipore, North Ryde, NSW, Australia) following manufacturers recommendations. Glycerol was added to a final concentration of 10 % (v/v) prior to storage at -20 °C.
# The H-PGDS catalyzed conjugation of GSH and 1-chloro-2,4-dinitrobenzene (CDNB) was used as the biochemical assay for enzyme inhibition. Reactions were performed in 96 well plate format, and product formation was followed at A340 nm over a 10 min internal at 25 °C using a POWERWAVE XS microplate scanning spectrophotometer (Bio-Tek Instruments, Winooski, VT, USA). Reactions were performed in 0.1 M Tris HCl, pH 8.0 containing 2 mM MgCl2, 1 mM CDNB, 2 mM GSH, 2.5 ng/µl purified H-PGDS and 10 % (v/v) ethanol in a 200 µl reaction volume. IC50 values were calculated from rates of conjugation activity determined at eight concentration points bracketing the IC50, where compound solubility allowed, and were corrected for background activity at the same solvent concentrations. All compounds were made up in 100 % DMSO and diluted with 0.1 M Tris HCl, pH 8.0 with 2 mM MgCl2. I50 and IC50 values were determined at a final DMSO composition of no greater than 4 % v/v for all compounds. Non-linear regression analysis and IC50 calculations were performed using GraphPad Prism version 4.0c.
# IC50 values were calculated from triplicate experiments, and are presented as IC50 ± Standard Error of the Mean.
# T1 sequence (O60760 whole entry): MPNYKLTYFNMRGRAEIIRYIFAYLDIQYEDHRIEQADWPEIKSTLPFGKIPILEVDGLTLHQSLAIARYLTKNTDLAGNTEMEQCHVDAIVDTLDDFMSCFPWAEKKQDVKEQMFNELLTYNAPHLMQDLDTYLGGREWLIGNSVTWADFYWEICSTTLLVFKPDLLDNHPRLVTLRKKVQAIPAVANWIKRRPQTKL
Compound,inhibition at 50 µM (H-PGDS) [%],IC50 (H-PGDS) [µM],other results
"c1ccc(C(OC2CCN(CCCc3nn[nH]n3)CC2)c2ccccc2)cc1 [Compound 1, reference compound]",,,"MEG-01S cell viability (MEG-01S): little effect; differential effect in inhibition of PGD2 versus PGE2, 6-keto PGF1α or TXB2 (selectivity) [1]: no differential effect; A23187-inducible PGD2 production [2]: very modest activity; BMM cell viability (BMM): modest but significant effects"
"O=C(NC(c1ccccc1)c1ccccc1)c1ccc(-c2cccs2)nc1 [Compound 4, N-benzhydryl-6-(thiophen-2-yl)nicotinamide]",28.5,,
"O=C(NCc1ccccc1)c1ccc(-c2cccs2)nc1 [Compound 5, N-benzyl-6-(thiophen-2-yl)nicotinamide]",99.5 ± 0.8,0.597 ± 1.2,
"O=C(c1ccc(-c2cccs2)nc1)N1CCc2ccccc2C1 [Compound 6, (3,4-dihydroisoquinolin-2(1H)-yl)(6-(thiophen-2-yl)pyridin-3-yl)methanone]",72.3 ± 1.5,,
"O=C(c1ccc(-c2cccs2)nc1)N1CCC2(CCc3ccccc32)CC1 [Compound 7, (2,3-dihydrospiro[indene-1,4'-piperidin]-1'-yl)(6-(thiophen-2-yl)pyridin-3-yl)methanone]",91 ± 0.1,1.97 ± 1.2,
"CC(=O)C1(c2ccccc2)CCN(C(=O)c2ccc(-c3cccs3)nc2)CC1 [Compound 8, 1-(4-phenyl-1-(6-(thiophen-2-yl)nicotinoyl)piperidin-4-yl)ethanone]",58.7 ± 0.8,,
"O=C(O)c1ccc(CNC(=O)c2ccc(-c3cccs3)nc2)cc1 [Compound 9, 4-((6-(thiophen-2-yl)nicotinamido)methyl)benzoic acid]",98.3 ± 1.1,0.66 ± 1.1,
"CS(=O)(=O)N1CC2(CCN(C(=O)c3ccc(-c4cccs4)nc3)CC2)c2ccccc21 [Compound 10, (1-(methylsulfonyl)spiro[indoline-3,4'-piperidin]-1'-yl)(6-(thiophen-2-yl)pyridin-3-yl)methanone]",90.4 ± 0.5,1.23 ± 1.1,
"O=C(c1ccc(-c2cccs2)nc1)N1CCC(n2c(=O)[nH]c3ccccc32)CC1 [Compound 11, 1-(1-(6-(thiophen-2-yl)nicotinoyl)piperidin-4-yl)-1H-benzo[d]imidazol-2(3H)-one]",90.4 ± 0.7,1.22 ± 1.4,
"C[C@H](NC(=O)c1ccc(-c2cccs2)nc1)c1ccc2ccccc2c1 [Compound 12, (S)-N-(1-(naphthalen-2-yl)ethyl)-6-(thiophen-2-yl)nicotinamide]",99.8 ± 0.3,0.086,
"O=C(c1ccc(-c2cccs2)nc1)N1CCC(N2C(=O)OCc3ccccc32)CC1 [Compound 13, 1-(1-(6-(thiophen-2-yl)nicotinoyl)piperidin-4-yl)-1H-benzo[d][1,3]oxazin-2(4H)-one]",,3.4 ± 1.4,I[50] (H-PGDS): 87.9 ± 1.1%
NC(=O)[C@H](Cc1ccccc1)NC(=O)c1ccc(-c2ccc(C=O)s2)nc1 [Compound 14],83.4 ± 1.5,1.7 ± 1.8,
NC(=O)[C@H](Cc1ccccc1)NC(=O)c1ccc(-c2ccc(C(=O)O)s2)nc1 [Compound 15],,,I[50] (H-PGDS): 19.4 ± 1.4%
NC(=O)[C@H](Cc1ccccc1)NC(=O)c1ccc(-c2ccc(Cl)s2)nc1 [Compound 16],89.4 ± 4.7,1.4 ± 1.3,
Cc1ccc(-c2ccc(C(=O)N[C@@H](Cc3ccccc3)C(N)=O)cn2)s1 [Compound 17],95 ± 1.1,2 ± 1.1,
CC(=O)c1ccc(-c2ccc(C(=O)N[C@@H](Cc3ccccc3)C(N)=O)cn2)s1 [Compound 18],65.5 ± 7.7,5.1 ± 1.1,
NC(=O)[C@H](Cc1ccccc1)NC(=O)c1ccc(-c2sccc2Cl)nc1 [Compound 19],94.8 ± 2.4,3.2 ± 1.6,
N#Cc1ccc(-c2ccc(C(=O)N[C@@H](Cc3ccccc3)C(N)=O)cn2)s1 [Compound 20],,,I[50] (H-PGDS): 67.9 ± 1.6%
Cc1csc(-c2ccc(C(=O)N[C@@H](Cc3ccccc3)C(N)=O)cn2)c1 [Compound 21],97.4 ± 0.8,0.38 ± 1.1,
Cc1cc(-c2ccc(C(=O)N[C@@H](Cc3ccccc3)C(N)=O)cn2)sc1C#N [Compound 22],,,I[50] (H-PGDS): 34.6 ± 2.1%
Cc1ccsc1-c1ccc(C(=O)N[C@@H](Cc2ccccc2)C(N)=O)cn1 [Compound 23],91.6 ± 0.8,1.87 ± 1.1,
CC(NC(=O)C(Cc1ccccc1)NC(=O)c1ccc(-c2cccs2)nc1)C(N)=O (stereo not drawn) [Compound 24],94.6 ± 0.3,0.86 ± 1.2,
Cc1csc(-c2ccc(C(=O)N[C@@H](C)c3ccc4ccccc4c3)cn2)c1 [Compound 25],96.9 ± 1,0.18,
